According to patent publication US7959904B2, “Delivery of medicaments to the nail” (University of Mississippi, priority 2001, dated 2011):

Assay: Permeability study through full thickness nail plates in modified Franz diffusion cells
Assay type: in vitro ADME, human
Conditions: for Total permeation of drug through nail plates: phosphate buffer pH 7.2 / 0.5% Brij 58 donor, after 48 hours
Protocol: Example 6 examines permeability of the medicament into the nail. For this Example, ketoconazole is utilized as a model drug to perform permeability studies. The drug is dissolved in two different media for testing which functioned as the donor solution. The first is an isotonic phosphate buffer solution (pH 7.2) with 0.5% Brij 58 as a solubilizer. The second is an 80:20 methanol/water solution buffered to pH 7.2. The receptor media is the same as the donor media without dissolved drug in both cases.
A system employing 9 modified glass Franz diffusion cells is used. Full thickness nail plates are sandwiched between two polypropylene adapters with an O-ring and were mounted on the individual cells with the dorsal nail plate facing the donor compartment (receptor volume 5.2 ml; donor surface area 0.5 cm^2). The receptor fluid is maintained at 37±0.5° C. and is continuously stirred with a magnetic bar. The donor solutions are applied to the dorsal nail surface following a one hour hydration period. Samples of the receptor phase are withdrawn at predetermined time intervals (for up to 48 hours) and immediately replaced with fresh […]. Analysis of the samples is corrected for previous drug removed. The receptor and donor compartments are sealed with a sheet of aluminum foil and wrapped with parafilm. The hermeticity of the system was continuously monitored. Drug content in the receptor media is determined using high performance liquid chromatography.

CC(=O)N1CCN(c2ccc(OCC3COC(Cn4ccnc4)(c4ccc(Cl)cc4Cl)O3)cc2)CC1 (stereo not drawn) [ketoconazole]
Greater total permeation, etched vs nonetched nail (80:20 methanol/water buffered to pH 7.2 donor): ~3 fold
Total permeation of drug through nail (80:20 methanol/water buffered to pH 7.2 donor, etched nail): 6,191±323.3 μg/cm^2
Total permeation of drug through nail (80:20 methanol/water buffered to pH 7.2 donor, nonetched nail): 2,497±237 μg/cm^2
Total permeation of drug through nail plates (etched nail plates): 1,873 (±155) μg/cm^2
Total permeation of drug through nail plates (unetched nail plates): 446 (±51) μg/cm^2
Difference in total permeation, etched vs unetched nail (phosphate buffer/Brij 58 donor, 48 hours): ~4 fold
